Laboratory results: patent publication US20140288077A1, “SUBSTITUTED 4-PHENOXYPHENOL ANALOGS AS MODULATORS OF PROLIFERATING CELL NUCLEAR ANTIGEN ACTIVITY” (ST. JUDE CHILDREN'S RESEARCH HOSPITAL, priority 2011, published 2014)
Several values for one entry are separate records, joined by “and”; a condition that tells them apart may be missing. Equal values may be shown once.

Assays:
Polδ3 = test: Immunoblotting for Polδ3 in whole cell lysates; type: cell-based; conditions: U2OS cells, FIG. 24B
Procedure: The cells treated as indicated were washed twice with ice-cold PBS, collected in a spin tube, and lysed with radioimmune precipitation assay buffer supplemented with Halt protease inhibitor mixture and Halt phosphatase inhibitor mixture (Thermo Scientific) using approximately twice the volume of the cell pellet on ice for 0.5 h. Protein concentration was determined by a BCA assay (Thermo Scientific) according to the manufacturer's recommendation. Normalized amounts of samples were loaded on SDS-PAGE as indicated and electrotransferred to a PVDF membrane. The membrane was blocked with SuperBlock buffer (Thermo Scientific) and incubated with the indicated primary antibodies in SuperBlock at 4° C. overnight, rinsed with TBS, 0.05% Tween 20 three times for 10 min, incubated with the corresponding secondary IgG-HRP conjugate in SuperBlock at room temperature for 1 h, and rinsed with TBS, 0.05% Tween 20 for 15 min. Proteins probed on the membrane were visualized by chemiluminescence using WestPico reagent (Thermo Scientific) and developed on BioMax MR film (Eastman Kodak Co.).

U2OS cells [1] = test: DNA replication assay (BrdU incorporation); type: cell-based; conditions: titration of compound, 24 h, FIG. 25A-C
Procedure: DNA replication in U2OS and/or HeLa cells were analyzed by the rates of bromodeoxyuridine (BrdU) incorporation by a method reported previously (Taddei, A., et al. (1999) J. Cell Biol. 147, 1153-1166.). For immunofluorescence, cells were propagated at a subconfluent density onto a coverslip in a 6-well culture plate the day before the assay. […] During the last 15 min in the incubation period, BrdU was added at a concentration of 10 μM. Cells were washed with PBS and fixed with 4% paraformaldehyde in PBS for 15 min at room temperature. After permeabilization with 0.2% Triton X-100 in PBS for 15 min, cells were treated with 4N hydrochloric acid for 10 min and extensively rinsed with PBS. After blocking cells with 3% FBS in PBS for 20 min, anti-BrdU monoclonal antibody (1 μg/ml; clone 44, BD Pharmingen) was added to the cells and incubated at room temperature for 1 h. Cells were rinsed with PBS three times for 5 min each. Antimouse IgG conjugated with Alexa Fluor 555 (Invitrogen) was added and incubated at room temperature for 30 min. […] Fluorescence microscopy was done on an E800 microscope (Nikon) with a DXM1120 digital camera (Nikon). […] For quantitative analyses, BrdU incorporation was measured with the APC BrdU Flow Kit (BD Pharmingen) following the manufacturer's instructions. […] The populations of BrdU-positive cells (a) and mean BrdU intensity in S-phase cells (b) were recorded. […]

cells [2] = test: Cell cycle analysis by flow cytometry (PI); type: cell-based; conditions: 20 μM, 24 h, FIG. 25E
cells [3] = test: Apoptosis analysis by flow cytometry (Annexin-V and PI); type: cell-based; parameters: dose or concentration left out as unconfirmed; conditions: 5 days, FIG. 25G
HeLa cells = test: Immunostaining of phospho-Chk1 and γH2AX (DNA replication stress); type: cell-based; conditions: 4 h, FIG. 26A
U2OS cells [4] = test: Chromatin immunostaining of phospho(Ser33)RPA32; type: cell-based; conditions: 40 μM, 24 h, FIG. 26B
Procedure: The cells were fixed with 4% paraformaldehyde in PBS for 20 min at room temperature, rinsed three times with PBS for 5 min each, permeabilized with ice-cold methanol for 10 min at −20° C., and rinsed once with PBS for 5 min. The specimens were blocked with PBS containing 5% FBS and 0.03% Triton X-100 for 60 min, applied anti-PCNA antibody (1:3200) and anti-Polδ3 antibody (2.9 μg/ml) or anti-phospho(Ser^33)RPA32 antibody (4.0 μg/ml) in antibody buffer (PBS containing 1% FBS and 0.03% Triton X-100), incubated overnight in a humid chamber at 4° C., and rinsed with PBS three times for 5 min each at room temperature. The specimens were incubated with Alexa Fluor 555-conjugated goat anti-mouse IgG (Invitrogen) antibody (1:500) in the antibody buffer for 2 h in a humidified chamber at room temperature the dark, rinsed once with PBS for 5 min, incubated with Alexa Fluor 488-conjugated goat anti-rabbit IgG (Invitrogen) antibody (1:500) in the antibody buffer for 2 h in a humidified chamber at room temperature in the dark, and rinsed three times with PBS for 5 min. The coverslips were mounted VectaShield containing DAPI at 1 μg/ml (Vector Laboratories). Immunofluorescence imaging for chromatin was performed on a ClSi microscope (Nikon) with a Cascade 512B photomultiplier (Photometrics). Images were processed using EZC1 (Nikon) and Photoshop (Adobe) software. […]

XP2OS(SV40) cells = test: TLS assay in mammalian cultured cells with cisplatin-cross-linked Pt-GTG plasmid; type: cell-based; conditions: 5 μM of T2AA
Procedure: The cisplatin-modified plasmid was constructed, and the TLS assay was performed as previously described (14) with some modifications. Briefly, two oligonucleotides, [NT] and [NT], were annealed and inserted between the sites of EcoRV and EcoRI in pUCS[…]. The resultant plasmid was designated as pUCS[…]+ BglII. […] This oligonucleotide has the cross-link at the underlined site of [NT]. An unmodified 13-mer oligonucleotide was used for the construction of control plasmid. These oligonucleotides were purified with HPLC and PAGE. […] The gapped duplex plasmid was incubated with a 2-fold molar excess of the purified 13-mer oligonucleotide, which is complementary to the gap sequence except for a bulge in the middle in the presence of ATP (1 mM) and T4 DNA ligase (New England Biolabs, Ipswich, MA) at 16° C. for 6 min. The covalently closed circle plasmid was purified with equilibrium centrifugation on a CsCl gradient. The plasmids with and without the cisplatin adduct are hereafter referred to as Pt-GTG and Mock-GTG, respectively. […] The plasmids were extracted from the cells by using the QIAprep spin miniprep kit (Qiagen), digested with the restriction endonuclease DpnI (New England Biolabs) to remove the unreplicated plasmids, and introduced into Escherichia coli strain DH5α. The E. coli was plated onto LB agar plates containing ampicillin, X-gal, and isopropyl-β-D-thioga-lactopyranoside. […] Therefore, TLS frequency (%) was defined as (number of blue colonies/number of total colonies)×100.

U2OS cells [5] = test: γH2AX staining by flow cytometry, T2AA and cisplatin; conditions: 18 h, FIG. 28A
Procedure: For γH2AX staining, cells were cultured at 4×10^5 cells/well of 12-well plates in 1 ml of medium, treated with drugs as indicated, trypsin-lifted and stained by using the FlowCellect H2A.X DNA Damage kit (FCCH025142, Millipore) according to the manufacturer's recommendations. All samples were filtered through 40-μm nylon mesh prior to running flow cytometry.
NT, no treatment. Error bars, S.D.

U2OS cells [6] = test: Growth of cells after treatment with cisplatin and T2AA and release (Alamar Blue); conditions: 18 h, then 3 days drug-free, FIG. 28B
Procedure: The cells were treated with drugs as indicated in a black (transparent flat bottom) 384-well or 96-well plate. Cellular viability was determined by using Alamar Blue reagent (Invitrogen) on an EnVision plate reader according to the manufacturer's recommendations and normalized with signal from wells of DMSO treatment=100% and of no cells=0%.
Viability of the cells was measured by Alamar Blue reagent, and signals were normalized with those of no cell well (0%) and cells with no drugs (100%). NT, no treatment. Error bars, S.D.

## N[C@H](CO)Cc1cc(I)c(Oc2ccc(O)cc2)c(I)c1 [Compound T2AA]
Polδ3
  expression of Polδ3 protein in whole cell lysate: not reduced
U2OS cells [1]
  BrdU incorporation: inhibited the BrdU incorporation significantly in a dose-dependent manner
Cells [2]
  cell cycle: arrested cells at S-phase
Cells [3]
  apoptosis (Annexin-V / PI): increased cellular populations in early apoptosis but not necrosis
HeLa cells
  phosphorylation of Chk1 and H2AX: phosphorylated
U2OS cells [4]
  immunofluorescence of phospho-RPA32 in nuclei: increased
XP2OS(SV40) cells
  Mock GTG plasmid Raito (%) blue/total, Total/Average: 36.9 (100) %
  Pt-GTG plasmid Raito (%) blue/total, Total/Average: 5.3 (14.2) %
XP2OS(SV40) cells; single experiments
  Mock GTG plasmid Raito (%) blue/total: 36.0% and 34.5% and 41.0% and 37.9% and 38.1% and 34.2%
U2OS cells [5]; T2AA and cisplatin together
  γH2AX level (DNA damage response): further increased much higher than the level combined from each single treatment
U2OS cells [5]; single agent
  γH2AX level (DNA damage response): induced γH2AX only a little
U2OS cells [6]; 10 μM T2AA alone
  reduction of U2OS cell growth: less than 10%
U2OS cells [6]; cisplatin and T2AA together
  U2OS cell growth: significantly reduced
